The text below walks through data of patent US20260103465A1, “GLYCOGEN SYNTHASE KINASE 3 INHIBITORS AND USES THEREOF” (The Broad Institute, Inc., priority 2023, published 2026).

Where two headings read alike, the source gives them in different places.

In assay [1] the target is T1, GSK3b (GST-full length GSK3b) (Homo sapiens, UniProt P49841).
T1 construct: GST-full length GSK3b: [SignalChem G08-9G]; purchased SignalChem G08-9G
The assay is described as follows: GSK3b TR-FRET kinase inhibition assay. In kind it is biochemical. A digest of the protocol: (§1)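 GST-tagged full-length human kinase (1 nM), pre-incubated 30 min with compound, then reacted 100 min at ambient temperature at pH 7.5 with 200 nM biotinylated phospho-S645 glycogen synthase 631–650 peptide and ATP at 2 μM–1 mM. After EDTA quench, Tb-pSer641 antibody/streptavidin-d2 TR-FRET 665/615 ratio fitted for IC50.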
(In general: TR-FRET usually uses a lanthanide donor and a delayed reading to cut background.)

Assay [2] concerns the target T2, GSK3a (GST-full length GSK3a) (Homo sapiens, UniProt P49840).
T2 construct: GST-full length GSK3a [SignalChem G08-10G]; purchased SignalChem G08-10G
In words: GSK3a TR-FRET kinase inhibition assay. In kind it is biochemical. Summed up:
as §1

Where [3] appears, read: 100 μM ATP, read-out: GSK3b 100 μM ATP Average IC50.
Where [4] appears, read: 1 mM ATP, Table 3, read-out: GSK3b TR-FRET 1 mM ATP Average IC50.
Setting [5] is: 100 μM ATP, read-out: GSK3a 100 μM ATP Average IC50.
The mark [6] stands for this setting: 1 mM ATP, Table 3, read-out: GSK3a TR-FRET 1 mM ATP Average IC50.

T1 sequence (P49841 whole entry): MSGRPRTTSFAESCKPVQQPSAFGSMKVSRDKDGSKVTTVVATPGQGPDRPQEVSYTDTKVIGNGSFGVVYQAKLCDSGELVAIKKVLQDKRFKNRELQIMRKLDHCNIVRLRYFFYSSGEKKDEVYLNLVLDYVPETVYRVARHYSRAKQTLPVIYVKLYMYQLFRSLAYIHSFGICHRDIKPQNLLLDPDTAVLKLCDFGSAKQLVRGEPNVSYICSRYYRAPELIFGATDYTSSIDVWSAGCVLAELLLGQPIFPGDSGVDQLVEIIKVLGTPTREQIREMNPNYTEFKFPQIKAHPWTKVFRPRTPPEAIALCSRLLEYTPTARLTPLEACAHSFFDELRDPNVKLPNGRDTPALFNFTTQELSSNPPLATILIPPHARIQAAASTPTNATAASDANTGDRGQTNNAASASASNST
T2 sequence (P49840 whole entry): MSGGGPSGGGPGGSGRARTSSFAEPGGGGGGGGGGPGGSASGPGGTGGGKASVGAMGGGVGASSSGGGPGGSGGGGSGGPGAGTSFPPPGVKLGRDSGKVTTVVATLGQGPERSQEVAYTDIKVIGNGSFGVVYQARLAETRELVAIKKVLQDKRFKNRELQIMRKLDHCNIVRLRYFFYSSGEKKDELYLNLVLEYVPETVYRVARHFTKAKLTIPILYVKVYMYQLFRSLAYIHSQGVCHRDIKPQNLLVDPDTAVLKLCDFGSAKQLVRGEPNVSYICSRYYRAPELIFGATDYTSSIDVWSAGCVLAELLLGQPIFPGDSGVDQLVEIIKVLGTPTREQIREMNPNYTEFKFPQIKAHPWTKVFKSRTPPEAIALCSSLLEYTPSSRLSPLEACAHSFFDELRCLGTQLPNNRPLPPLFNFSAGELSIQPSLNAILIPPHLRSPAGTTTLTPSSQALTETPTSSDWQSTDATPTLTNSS

In the case of `CC(C)c1cnc2c(c1)C(C)(c1ccccc1)C1=C(CC(C)(C)CC1=O)N2` (single isomer, unassigned) [Compound 119A], the IC50 (usually the point on the concentration scale where inhibition reaches its midpoint) in assay [1] (setting [3]) is 0.1 to 1 µM; in assay [1] (setting [4]), 1 to 5 µM; in assay [2] (setting [5]), 0.1 to 1 µM; in assay [2] (setting [6]) it was 5 to 20 µM.
For `CC(C)c1ccnc2c1C(C)(c1ccccc1)C1=C(CC(C)(C)CC1=O)N2` (single isomer, unassigned) [Compound 120A], the values for the IC50 in assay [1] (setting [4]) and in assay [2] (setting [6]) were 0.1 to 1 µM and 1 to 5 µM, respectively.
As for `CC1(C)CC(=O)C2=C(C1)Nc1ncc(F)c(C#N)c1C2(C)c1ccccc1` (single isomer, unassigned) [Compound 121B], the IC50 in assay [1] (setting [4]) and in assay [2] (setting [6]) was 1 to 5 µM each time.
On to `CC1(C)CC(=O)C2=C(C1)Nc1ncc(C3CCC3)cc1C2(C)c1ccccc1` (single isomer, unassigned) [Compound 122A], for which the IC50 in assay [1] (setting [3]) fell in the range of 1 to 5 µM; in assay [1] (setting [4]), 5 to 20 µM; in assay [2] (setting [5]) it was 1 to 5 µM.
With `CC1(C)CC(=O)C2=C(C1)Nc1nccc(CC3CC3)c1C2(C)c1ccccc1` (single isomer, unassigned) [Compound 123A], the IC50 in assay [1] (setting [4]) and in assay [2] (setting [6]) was 1 to 5 µM in each case.
With `CC1(C)CC(=O)C2=C(C1)Nc1nccc(CC3CC3)c1C2(C)c1ccccc1` (single isomer, unassigned) [Compound 123B], the IC50 in assay [1] (setting [4]) and in assay [2] (setting [6]) was 1 to 5 µM each time.
As for `CC1(C)CC(=O)C2=C(C1)Nc1ncc(C(C)(C)C)cc1C2(C)c1ccccc1` (single isomer, unassigned) [Compound 124A], the IC50 in assay [1] (setting [3]), in assay [1] (setting [4]), in assay [2] (setting [5]) and in assay [2] (setting [6]) was 5 to 20 µM each time.
`CC1(C)CC(=O)C2=C(C1)Nc1ncc(C(C)(C)C)cc1C2(C)c1ccccc1` (single isomer, unassigned) [Compound 124B]: the IC50 in assay [1] (setting [4]) and in assay [2] (setting [6]) was 5 to 20 µM each time.
In the case of `CC1(C)CC(=O)C2=C(C1)Nc1ncc(F)c(C3CC3)c1C2(C)c1ccccc1` (single isomer, unassigned) [Compound 125A], the IC50 in assay [1] (setting [4]) and in assay [2] (setting [6]) was 0.1 to 1 µM each time.
As for `CC1(C)CC(=O)C2=C(C1)Nc1ncc(F)c(C3CC3)c1C2(C)c1ccccc1` (single isomer, unassigned) [Compound 125B], the IC50 in assay [1] (setting [4]) and in assay [2] (setting [6]) was 1 to 5 µM each time.
As for `CC1(C)CC(=O)C2=C(C1)Nc1nccc(C(F)(F)F)c1C2(C)c1ccccc1` (single isomer, unassigned) [Compound 127B], the half-inhibitory concentration (IC50) in assay [1] (setting [4]) and in assay [2] (setting [6]) was 5 to 20 µM in each case.
For `CC1(C)CC(=O)C2=C(C1)Nc1ncc(C(F)(F)F)cc1C2(C)c1ccccc1` (single isomer, unassigned) [Compound 128A], the figures for the concentration for half-maximal inhibition (IC50) in assay [1] (setting [4]) and in assay [2] (setting [6]) were 1 to 5 µM and 5 to 20 µM, respectively.
As for `CC1(C)CC(=O)C2=C(C1)Nc1ncccc1C2(C)c1cccc(-c2ccncc2)c1` (single isomer, unassigned) [Compound 131B], the IC50 in assay [1] (setting [4]) and in assay [2] (setting [6]) was 1 to 5 µM each time.
`CC1(C)CC(=O)C2=C(C1)Nc1nccc(CC(F)(F)F)c1C2(C)c1ccccc1` (single isomer, unassigned) [Compound 132A]: the IC50 in assay [1] (setting [4]) and in assay [2] (setting [6]) was 1 to 5 µM each time.
As for `CC1(C)CC(=O)C2=C(C1)Nc1nccc(CC(F)(F)F)c1C2(C)c1ccccc1` (single isomer, unassigned) [Compound 132B], the IC50 in assay [1] (setting [4]) fell in the range of 1 to 5 µM; in assay [2] (setting [6]), 5 to 20 µM.
In the case of `CC1(C)CC(=O)C2=C(C1)Nc1ncc(F)c(C(F)(F)F)c1C2(C)c1ccccc1` (single isomer, unassigned) [Compound 135A], the IC50 in assay [1] (setting [4]) and in assay [2] (setting [6]) was 0.1 to 1 µM in each case.
As for `CC1(C)CC(=O)C2=C(C1)Nc1ncc(F)c(C(F)(F)F)c1C2(C)c1ccccc1` (single isomer, unassigned) [Compound 135B], the IC50 in assay [1] (setting [4]) fell in the range of 1 to 5 µM; in assay [2] (setting [6]), 5 to 20 µM.
The matching figures for `CC1(C)CC(=O)C2=C(C1)Nc1ncc(C(F)(F)F)c(F)c1C2(C)c1ccccc1` (single isomer, unassigned) [Compound 136A]: 5 to 20 µM and 5 to 20 µM.
Taken in the same sequence, the figures for `CC1(C)CC(=O)C2=C(C1)Nc1ncc(C(F)(F)F)c(F)c1C2(C)c1ccccc1` (single isomer, unassigned) [Compound 136B] were 5 to 20 µM and 5 to 20 µM.
The matching figures for `CC1(C)CC(=O)C2=C(C1)Nc1ncc(C(F)(F)F)c(C#N)c1C2(C)c1ccccc1` (single isomer, unassigned) [Compound 137A]: 0.1 to 1 µM and 1 to 5 µM.
Consider `CC1(C)CC(=O)C2=C(C1)Nc1ncc(C(F)(F)F)c(C#N)c1C2(C)c1ccccc1` (single isomer, unassigned) [Compound 137B], for which the IC50 in assay [1] (setting [4]) and in assay [2] (setting [6]) was 1 to 5 µM in each case.
For the compound `CC1(C)CC(=O)C2=C(C1)Nc1ncc(F)cc1C2(C)c1cccc(S(C)(=O)=O)c1` (single isomer, unassigned) [Compound 139B], the IC50 in assay [1] (setting [4]) and in assay [2] (setting [6]) was 5 to 20 µM in each case.
Regarding `CC1(C)CC(=O)C2=C(C1)Nc1ncc(Br)c(F)c1C2(C)c1ccccc1` (single isomer, unassigned) [Compound 140A], the IC50 in assay [1] (setting [4]) was 0.1 to 1 µM; in assay [2] (setting [6]) it was 1 to 5 µM.
Consider `CC1(C)CC(=O)C2=C(C1)Nc1ncc(Br)c(F)c1C2(C)c1ccccc1` (single isomer, unassigned) [Compound 140B], for which the IC50 in assay [1] (setting [4]) and in assay [2] (setting [6]) was 5 to 20 µM throughout.
Turning to `CC1(C)CC(=O)C2=C(C1)Nc1ncc(C(F)(F)F)c(Cl)c1C2(C)c1ccccc1` (single isomer, unassigned) [Compound 141A], the concentration for half-maximal inhibition (IC50) in assay [1] (setting [4]) is 1 to 5 µM; in assay [2] (setting [6]), 5 to 20 µM.
Consider `CC1(C)CC(=O)C2=C(C1)Nc1ncc(C(F)(F)F)c(Cl)c1C2(C)c1ccccc1` (single isomer, unassigned) [Compound 141B], for which the IC50 in assay [1] (setting [4]) and in assay [2] (setting [6]) was 1 to 5 µM each time.
Turning to `Cc1c(F)cnc2c1C(C)(c1cccc(S(C)(=O)=O)c1)C1=C(CC(C)(C)CC1=O)N2` (single isomer, unassigned) [Compound 144A], the IC50 in assay [1] (setting [4]) and in assay [2] (setting [6]) was 0.1 to 1 µM each time.
Turning to `Cc1c(F)cnc2c1C(C)(c1cccc(S(C)(=O)=O)c1)C1=C(CC(C)(C)CC1=O)N2` (single isomer, unassigned) [Compound 144B], the IC50 in assay [1] (setting [4]) and in assay [2] (setting [6]) was 5 to 20 µM throughout.
On to `CC1(C)CC(=O)C2=C(C1)Nc1ncc(Br)c(Cl)c1C2(C)c1ccccc1` (single isomer, unassigned) [Compound 145A], for which the IC50 in assay [1] (setting [4]) and in assay [2] (setting [6]) was 1 to 5 µM each time.
Turning to `CC1(C)CC(=O)C2=C(C1)Nc1ncc(Br)c(Cl)c1C2(C)c1ccccc1` (single isomer, unassigned) [Compound 145B], the IC50 in assay [1] (setting [4]) and in assay [2] (setting [6]) was 5 to 20 µM throughout.
As to `CCC1(c2cccc(-c3ccnc(C)c3C)c2)C2=C(CC(C)(C)CC2=O)Nc2ncccc21` (single isomer, unassigned) [Compound 147A], the IC50 in assay [1] (setting [4]) lay in the range of 1 to 5 µM; in assay [2] (setting [6]), 0.1 to 1 µM.
Regarding `CC1(C)CC(=O)C2=C(C1)Nc1ncc(F)c(C#N)c1C2(C)c1cccc(S(C)(=O)=O)c1` (single isomer, unassigned) [Compound 148A], the IC50 in assay [1] (setting [4]) and in assay [2] (setting [6]) was not above 0.1 µM in each case.
Turning to `CC1(C)CC(=O)C2=C(C1)Nc1ncc(F)c(C#N)c1C2(C)c1cccc(S(C)(=O)=O)c1` (single isomer, unassigned) [Compound 148B], the IC50 in assay [1] (setting [4]) and in assay [2] (setting [6]) was 5 to 20 µM in each case.
Turning to `CCC1(c2cccc(-c3cncn3C(C)C)c2)C2=C(CC(C)(C)CC2=O)Nc2ncccc21` (single isomer, unassigned) [Compound 149B], the IC50 was 0.1 to 1 µM in assay [1] (2 μM ATP, read-out: GSK3β TR-FRET 2 μM ATP GMean IC50) and 0.1 to 1 µM in assay [2] (4 μM ATP, read-out: GSK3α TR-FRET 4 μM ATP GMean IC50).
Take `CC1(C)CC(=O)C2=C(C1)Nc1ncccc1C2(C)c1cccc(-c2ccncc2C2CCC2)c1` (single isomer, unassigned) [Compound 151A]: the IC50 in assay [1] (setting [4]) and in assay [2] (setting [6]) was 1 to 5 µM in each case.
Consider `CC1(C)CC(=O)C2=C(C1)Nc1ncccc1C2(C)c1cccc(-c2ccncc2C(C)(C)C)c1` (single isomer, unassigned) [Compound 152A], for which the half-maximal inhibitory concentration (IC50) in assay [1] (setting [4]) fell in the range of 5 to 20 µM; in assay [2] (setting [6]) it was 1 to 5 µM.
`CC1(C)CC(=O)C2=C(C1)Nc1ncc(F)c(C3CC3)c1C2(C)c1cccc(S(C)(=O)=O)c1` (single isomer, unassigned) [Compound 153A]: the IC50 in assay [1] (setting [4]) and in assay [2] (setting [6]) was not above 0.1 µM throughout.
Take `CC1(C)CC(=O)C2=C(C1)Nc1ncc(F)c(C3CC3)c1C2(C)c1cccc(S(C)(=O)=O)c1` (single isomer, unassigned) [Compound 153B]: the IC50 in assay [1] (setting [4]) and in assay [2] (setting [6]) was 5 to 20 µM in each case.
As to `COc1cncc(F)c1-c1cccc(C2(C)C3=C(CC(C)(C)CC3=O)Nc3ncc(C)cc32)c1` (single isomer, unassigned) [Compound 155A], the IC50 is 1 to 5 µM in assay [1] (setting [4]) and 0.1 to 1 µM in assay [2] (setting [6]).
Take `COc1cncc(F)c1-c1cccc(C2(C)C3=C(CC(C)(C)CC3=O)Nc3ncc(C)cc32)c1` (single isomer, unassigned) [Compound 155B]: the half-maximal inhibitory concentration (IC50) in assay [1] (setting [4]) and in assay [2] (setting [6]) was 5 to 20 µM throughout.
